Source: patent US8557265B2, “Use of a synergistic composition as a therapeutic agent of disinfectant” (Bode Chemie GmbH, priority 2007, dated 2013)

Columns and labels:
Type in all cases: cell-based
[1] = tested on: genomic DNA and extrachromosomal plasmid (Yep351) of recombinant Escherichia coli strain; assay: Breakdown of genomic DNA and extrachromosomal plasmid DNA in microorganisms, gel electrophoresis (FIG. 1); conditions: E. coli suspension, lysozyme 5 minutes, then 5 minutes with 5 μl of solution
Experimental: A recombinant Escherichia coli strain with an extrachromosomal plasmid (Yep351) was cultivated overnight in LB amp medium. Every 5 μl of this E. coli suspension were treated with 5 μl of lysozyme solution (1 mg/ml) for 5 minutes and then incubated for another 5 minutes with 5 μl of the indicated solutions (1-5). After adding bromophenol blue, the samples were placed in the gel bags and the DNA molecules were separated by electrophoresis.

[2] = tested on: Bacillus subtilis; assay: Test for antimicrobial action, colony count after plating; conditions: cell count of 106 in 50 μl mixed 1:1; incubation time 2 minutes; plated, 37° C.
Experimental: (§1) Fresh cultures of the indicated microorganisms were adjusted to a cell count of […] in 50 μl and then mixed in a 1:1 ratio with 50 μl of water 70% ethanol or the invented agent (100 mM ascorbic acid, 10 mM FeCl3, and 0.5% SDS). After an incubation time of 2 minutes, the 100 μl batches with the bacteria were plated out on corresponding growth dishes. After an incubation of 1-3 days at 28° C. (Saccharomyces cerevisiae and Candida parapsilosis) or 37° C. (Escherichia coli and Bacillus subtilis), the number of grown colonies was determined. In the batches with sterile water, all microorganisms survived.

[3] = tested on: Candida parapsilosis; assay: as above; conditions: cell count of 106 in 50 μl mixed 1:1; incubation time 2 minutes; plated, 28° C.
Experimental: as §1

[4] = tested on: Escherichia coli; assay: as above; conditions: cell count of 106 in 50 μl mixed 1:1; incubation time 2 minutes; plated, 37° C.
Experimental: as §1

[5] = tested on: Saccharomyces cerevisiae; assay: as above; conditions: cell count of 106 in 50 μl mixed 1:1; incubation time 2 minutes; plated, 28° C.
Experimental: as §1

Compound	effect on DNA molecules in gel electrophoresis [1]	number of grown colonies [2]	number of grown colonies [3]	number of grown colonies [4]	number of grown colonies [5]
CCO [70% ethanol, ethanol]	precipitation of the cell lysate and the DNA	0	0	0	0
CCCCCCCCCCCCOS(=O)(=O)[O-].[Na+] [sample 3, SDS]	lysis of the cells				
